Key:
Mus musculus = test: Effective dose required for analgesic potency in the hotplate procedure after sc injection into mice.; format: functional
[1] = target: Opioid receptors; mu/kappa/delta (Homo sapiens, UniProt P41145+P41143+P35372); test: Ability to displace [3H]etorphine from Opioid receptors in guinea pig brain; parameters: species or system Cavia porcellus

SMILES	ED50 (Mus musculus) [mg/kg]	IC50 [1] [µM]
CCOC(=O)C1(c2ccccc2)CCN(C)CC1 [MEPERIDINE]	1.3	
CCC(=O)O[C@@]1(c2ccccc2)CCN(C)C(C)C1 (single isomer, unassigned; (+))	5.5	11
CCC(=O)OC1(c2ccccc2)CCN(C)C(C)C1 (racemic)	0.52	2
CN1CC[C@]23c4c5ccc(O)c4O[C@H]2[C@@H](O)C=C[C@H]3[C@H]1C5 [MORPHINE]	1.2	
CCC(=O)O[C@]1(c2ccccc2)CCN(C)[C@@H](C)C1	0.53	1.2
